According to US9676792B2, “Pyrimido-diazepinone compounds and methods of treating disorders” (Dana-Farber Cancer Institute, Inc., priority 2013, dated 2017):
Several values for one entry are separate records, joined by “and”; a condition that tells them apart may be missing. Identical values can stand only once. Like-named read-outs stand apart in the source and are kept apart here.

Experiments:
EphB2 [1] = molecular target: T1, EphB2 (Homo sapiens (Human), UniProt P29323); test: ActivX kinase profiling; format: binding
ERK5 [2] = molecular target: T2, ERK5 (Homo sapiens (Human), UniProt Q13164); test: KiNativ chemical proteomics profiling in HeLa and PC3 cell lysates; format: binding; conditions: read-out: ERK5 inhibition (KiNativ)
From the text: Compared with our previously reported ERK5 inhibitor, XMD8-92 (11, S10=0.012, 5/402), compound 26 represents a further improvement in selectivity. […] Compounds 25 and 26 were also profiled against selected panels of kinases in HeLa and PC3 cell lysates using a chemical proteomics approach, KiNativ.

panel of 442 kinases [3] = test: KINOMEscan selectivity profiling; format: binding; conditions: 10 μM
From the text: We assessed the selectivity of this scaffold using the KINOMEscan methodology across a near comprehensive panel of 442 kinases. […]

LRRK2 = LRRK2 (Homo sapiens (Human), UniProt Q5S007); conditions: cited from earlier work
ERK5 [4] = molecular target: T2, ERK5; conditions: cited from earlier work
panel of 442 kinases [5] = conditions: cited from earlier work
EPHB1 = EPHB1 (Homo sapiens (Human), UniProt P54762); test: Ambit kinase profiling; format: binding
EphA2 [6] = molecular target: T3, EphA2 (Homo sapiens (Human), UniProt P29317); test: Ambit kinase profiling; format: binding
EphB2 [7] = molecular target: T1, EphB2; test: Ambit kinase profiling; format: binding
EphA1 = EphA1 (Homo sapiens (Human), UniProt P21709); test: Ambit kinase profiling; format: binding
EphA7 = EphA7 (Homo sapiens (Human), UniProt Q15375); test: Ambit kinase profiling; format: binding
EPHB6 = EPHB6 (Homo sapiens (Human), UniProt O15197); test: Ambit kinase profiling; format: binding
EPHB3 = EPHB3 (Homo sapiens (Human), UniProt P54753); test: Ambit kinase profiling; format: binding
EPHA5 = EPHA5 (Homo sapiens (Human), UniProt P54756); test: Ambit kinase profiling; format: binding
EphB4 = EphB4 (Homo sapiens (Human), UniProt P54760); test: Ambit kinase profiling; format: binding
EPHA8 = test: Ambit kinase profiling; format: binding
EPHA3 = EPHA3 (Homo sapiens (Human), UniProt P29320); test: Ambit kinase profiling; format: binding
EPHA4 = EPHA4 (Homo sapiens (Human), UniProt P54764); test: Ambit kinase profiling; format: binding
EphA2 [8] = molecular target: T3, EphA2; test: In vitro EphA2 kinase assay, Invitrogen EphA2 Z'-LYTE activity assay; format: biochemical
Description: Example 13: In Vitro EphA2 Kinase Assay—Invitrogen EphA2 Z′-LYTE Activity Assay
EphA2 kinase assays were performed according to the methods described in Z′-LYTE® Screening Protocol and Assay Conditions at the Life Technologies website (available at http://www.invitrogen.com).

T2 sequence (Q13164 2-816 limits assumed): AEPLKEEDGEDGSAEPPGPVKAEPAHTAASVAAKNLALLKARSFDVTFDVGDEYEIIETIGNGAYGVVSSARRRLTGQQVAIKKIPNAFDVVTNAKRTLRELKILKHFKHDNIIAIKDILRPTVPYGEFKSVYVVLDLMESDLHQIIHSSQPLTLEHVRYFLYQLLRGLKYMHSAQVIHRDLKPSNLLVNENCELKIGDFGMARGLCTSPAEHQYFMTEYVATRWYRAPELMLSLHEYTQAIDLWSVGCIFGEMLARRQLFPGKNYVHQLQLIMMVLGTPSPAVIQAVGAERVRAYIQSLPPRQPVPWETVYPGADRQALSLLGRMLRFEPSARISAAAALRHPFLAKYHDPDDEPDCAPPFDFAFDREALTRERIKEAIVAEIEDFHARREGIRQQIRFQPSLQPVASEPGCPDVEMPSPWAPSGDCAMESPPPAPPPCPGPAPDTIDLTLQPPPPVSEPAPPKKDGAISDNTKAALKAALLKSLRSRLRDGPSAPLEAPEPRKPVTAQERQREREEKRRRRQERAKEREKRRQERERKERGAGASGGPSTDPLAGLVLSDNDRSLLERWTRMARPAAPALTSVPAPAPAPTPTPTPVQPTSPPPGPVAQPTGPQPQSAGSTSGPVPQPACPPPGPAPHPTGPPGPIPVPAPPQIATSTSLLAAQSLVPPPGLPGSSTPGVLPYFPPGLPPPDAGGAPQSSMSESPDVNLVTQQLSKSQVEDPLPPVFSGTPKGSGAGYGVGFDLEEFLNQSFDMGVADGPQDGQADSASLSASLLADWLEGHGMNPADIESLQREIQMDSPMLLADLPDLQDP
T1 sequence (P29323 19-1055): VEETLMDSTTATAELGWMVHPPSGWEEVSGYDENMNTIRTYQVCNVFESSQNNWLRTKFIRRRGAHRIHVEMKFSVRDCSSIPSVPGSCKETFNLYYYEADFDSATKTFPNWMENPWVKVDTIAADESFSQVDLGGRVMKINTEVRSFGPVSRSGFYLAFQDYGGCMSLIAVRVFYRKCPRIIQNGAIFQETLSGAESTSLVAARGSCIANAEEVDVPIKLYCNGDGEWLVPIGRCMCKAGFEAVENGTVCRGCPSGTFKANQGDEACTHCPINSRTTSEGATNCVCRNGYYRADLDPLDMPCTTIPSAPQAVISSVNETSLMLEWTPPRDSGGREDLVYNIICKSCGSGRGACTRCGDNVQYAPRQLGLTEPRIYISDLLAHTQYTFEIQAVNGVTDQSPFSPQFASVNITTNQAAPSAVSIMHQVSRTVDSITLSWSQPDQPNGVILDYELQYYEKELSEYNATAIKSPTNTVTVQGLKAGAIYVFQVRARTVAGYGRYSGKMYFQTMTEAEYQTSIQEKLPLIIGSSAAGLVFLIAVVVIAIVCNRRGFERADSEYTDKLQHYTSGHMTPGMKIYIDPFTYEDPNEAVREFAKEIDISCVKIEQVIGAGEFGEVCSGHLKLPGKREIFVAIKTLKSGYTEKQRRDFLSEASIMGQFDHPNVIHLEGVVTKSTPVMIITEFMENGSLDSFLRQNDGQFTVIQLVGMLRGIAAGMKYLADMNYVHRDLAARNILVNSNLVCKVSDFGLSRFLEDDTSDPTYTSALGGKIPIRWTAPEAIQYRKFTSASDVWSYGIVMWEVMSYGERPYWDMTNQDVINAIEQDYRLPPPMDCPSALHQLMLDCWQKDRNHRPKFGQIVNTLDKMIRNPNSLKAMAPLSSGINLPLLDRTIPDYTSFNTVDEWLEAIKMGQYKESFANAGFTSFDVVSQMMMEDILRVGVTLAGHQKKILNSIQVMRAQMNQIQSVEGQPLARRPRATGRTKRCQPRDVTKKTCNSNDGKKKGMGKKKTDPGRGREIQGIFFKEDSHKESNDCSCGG
T3 sequence (P29317 24-976): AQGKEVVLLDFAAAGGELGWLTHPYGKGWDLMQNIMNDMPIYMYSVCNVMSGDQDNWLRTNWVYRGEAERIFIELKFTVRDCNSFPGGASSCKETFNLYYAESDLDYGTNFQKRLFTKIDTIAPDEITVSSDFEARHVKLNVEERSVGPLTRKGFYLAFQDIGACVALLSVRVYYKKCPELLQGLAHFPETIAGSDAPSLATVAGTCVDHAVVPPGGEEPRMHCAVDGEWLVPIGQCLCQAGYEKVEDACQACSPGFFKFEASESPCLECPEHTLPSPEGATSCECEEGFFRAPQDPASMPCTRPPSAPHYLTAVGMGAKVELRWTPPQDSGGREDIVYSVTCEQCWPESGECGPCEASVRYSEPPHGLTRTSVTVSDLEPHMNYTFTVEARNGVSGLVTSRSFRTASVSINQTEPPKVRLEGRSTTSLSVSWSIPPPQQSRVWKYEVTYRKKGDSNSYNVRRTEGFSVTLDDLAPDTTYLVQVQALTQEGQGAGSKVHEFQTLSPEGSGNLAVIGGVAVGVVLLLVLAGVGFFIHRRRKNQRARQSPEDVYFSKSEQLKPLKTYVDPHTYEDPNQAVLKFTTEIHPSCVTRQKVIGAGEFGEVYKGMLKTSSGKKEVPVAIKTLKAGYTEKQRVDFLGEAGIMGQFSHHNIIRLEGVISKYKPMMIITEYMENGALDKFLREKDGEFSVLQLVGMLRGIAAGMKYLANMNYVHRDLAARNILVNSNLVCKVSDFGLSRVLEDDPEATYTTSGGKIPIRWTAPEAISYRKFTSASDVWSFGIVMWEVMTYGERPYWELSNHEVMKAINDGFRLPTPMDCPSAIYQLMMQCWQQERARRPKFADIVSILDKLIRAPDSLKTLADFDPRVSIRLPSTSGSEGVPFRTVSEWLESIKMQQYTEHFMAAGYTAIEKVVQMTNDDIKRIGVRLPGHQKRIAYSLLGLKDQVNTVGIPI
EphB4, sequence (P54760 16-987): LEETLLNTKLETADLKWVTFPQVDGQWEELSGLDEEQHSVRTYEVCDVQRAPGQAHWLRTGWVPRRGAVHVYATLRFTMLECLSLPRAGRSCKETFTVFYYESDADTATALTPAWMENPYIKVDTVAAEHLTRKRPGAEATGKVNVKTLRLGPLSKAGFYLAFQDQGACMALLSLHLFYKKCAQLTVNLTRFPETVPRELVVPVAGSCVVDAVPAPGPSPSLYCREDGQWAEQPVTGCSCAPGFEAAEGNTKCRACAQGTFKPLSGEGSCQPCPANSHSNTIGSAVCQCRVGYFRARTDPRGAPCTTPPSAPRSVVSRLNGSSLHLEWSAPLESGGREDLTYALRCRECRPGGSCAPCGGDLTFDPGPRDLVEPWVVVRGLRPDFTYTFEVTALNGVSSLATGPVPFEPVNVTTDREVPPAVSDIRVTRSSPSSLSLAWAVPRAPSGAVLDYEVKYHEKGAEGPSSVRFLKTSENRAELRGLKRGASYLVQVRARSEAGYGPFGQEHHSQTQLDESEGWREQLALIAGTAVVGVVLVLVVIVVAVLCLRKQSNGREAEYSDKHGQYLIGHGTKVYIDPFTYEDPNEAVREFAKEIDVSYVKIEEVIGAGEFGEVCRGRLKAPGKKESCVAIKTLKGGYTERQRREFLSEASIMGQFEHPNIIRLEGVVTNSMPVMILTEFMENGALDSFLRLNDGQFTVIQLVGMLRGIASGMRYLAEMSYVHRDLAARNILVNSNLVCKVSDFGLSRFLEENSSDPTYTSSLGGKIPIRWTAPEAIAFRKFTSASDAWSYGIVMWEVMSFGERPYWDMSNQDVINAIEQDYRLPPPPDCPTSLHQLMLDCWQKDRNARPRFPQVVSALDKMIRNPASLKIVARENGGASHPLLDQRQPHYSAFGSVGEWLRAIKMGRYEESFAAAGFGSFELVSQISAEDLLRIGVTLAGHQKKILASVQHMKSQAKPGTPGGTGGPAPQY
EphA7, sequence (Q15375 28-998): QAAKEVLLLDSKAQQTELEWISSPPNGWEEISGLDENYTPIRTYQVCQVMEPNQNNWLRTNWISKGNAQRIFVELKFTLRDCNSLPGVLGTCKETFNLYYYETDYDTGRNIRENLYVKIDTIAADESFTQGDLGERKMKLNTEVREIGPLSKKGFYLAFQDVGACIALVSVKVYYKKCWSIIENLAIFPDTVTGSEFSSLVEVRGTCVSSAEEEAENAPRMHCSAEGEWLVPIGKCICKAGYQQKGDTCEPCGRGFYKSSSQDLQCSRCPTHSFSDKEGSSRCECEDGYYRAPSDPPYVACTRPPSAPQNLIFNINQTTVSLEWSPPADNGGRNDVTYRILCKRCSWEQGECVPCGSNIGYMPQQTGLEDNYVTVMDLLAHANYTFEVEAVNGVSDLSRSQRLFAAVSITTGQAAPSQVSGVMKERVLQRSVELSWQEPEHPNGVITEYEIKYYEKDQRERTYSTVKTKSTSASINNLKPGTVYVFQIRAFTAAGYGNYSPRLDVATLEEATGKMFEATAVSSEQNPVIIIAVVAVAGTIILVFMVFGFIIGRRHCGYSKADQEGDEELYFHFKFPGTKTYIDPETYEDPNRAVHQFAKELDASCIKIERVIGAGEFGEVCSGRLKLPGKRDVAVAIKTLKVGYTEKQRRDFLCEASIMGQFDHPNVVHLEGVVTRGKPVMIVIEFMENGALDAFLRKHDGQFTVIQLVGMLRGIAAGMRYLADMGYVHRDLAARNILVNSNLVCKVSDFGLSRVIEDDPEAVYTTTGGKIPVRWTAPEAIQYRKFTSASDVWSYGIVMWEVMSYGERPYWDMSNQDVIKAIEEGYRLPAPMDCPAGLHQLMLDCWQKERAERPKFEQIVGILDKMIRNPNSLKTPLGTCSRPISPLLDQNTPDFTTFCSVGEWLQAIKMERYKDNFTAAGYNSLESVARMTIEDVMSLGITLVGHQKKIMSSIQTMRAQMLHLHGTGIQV

COc1cc(N2CCN(C)CC2)ccc1Nc1ncc2c(n1)-c1ccccc1N(C1CCCC1)C(=O)N2 [AB-1-15]
ActivX EphB2 (EphB2 [1]): 5.2

COc1cc(N2CCN(C)CC2)ccc1Nc1ncc2c(n1)-c1ccccc1N(C1CCOCC1)C(=O)N2 [AB-1-16]
ActivX EphB2 (EphB2 [1]): 7

O=C1Nc2cnc(Nc3ccc(N4CCC(O)CC4)cc3)nc2-c2ccccc2N1C1CCCC1 [AB-1-17]
ActivX EphB2 (EphB2 [1]): 21.5

CN1C(=O)N(C2CCCC2)c2ccccc2-c2nc(Nc3ccc(N4CCC(O)CC4)cc3)ncc21 [AB-1-24]
ActivX EphB2 (EphB2 [1]): 6.8

COc1cc(C(=O)N2CCC(N3CCN(C)CC3)CC2)ccc1Nc1ncc2c(n1)N(C1CCCC1)c1ccccc1C(=O)N2C [Compound 25]
inhibition at 10 µM (ERK5 [2]): > 90%
KINOMEscan selectivity score S10 (panel of 442 kinases [3]): 0.018

O=C(Nc1cccnc1)c1cc(-c2ccnc(F)c2)ccc1OCc1ccccc1 [GSK2578215A, 2-arylmethyloxy-5-subtitutent-N-arylbenzamide]
LRRK2 inhibition as reported (LRRK2): potent LRRK2 inhibitors
ERK5 inhibition as reported (ERK5 [4]): do not inhibit ERK5

CNc1nc(Nc2ccc(C(=O)N3CCOCC3)cc2OC)ncc1Cl [HG-10-102-01, (4-((5-chloro-4-(methylamino)pyrimidin-2-yl)amino)-3-methoxyphenyl)(morpholino)methanone]
LRRK2 inhibition as reported (LRRK2): potent LRRK2 inhibitors
ERK5 inhibition as reported (ERK5 [4]): do not inhibit ERK5

COc1cc(C(=O)N2CCC(N3CCN(C)CC3)CC2)ccc1Nc1ncc2c(n1)N(C)c1ccccc1C(=O)N2C [LRRK2-IN-1]
KINOMEscan selectivity score S10 (panel of 442 kinases [5]; previous LRRK2 inhibitor, 16/442): 0.036

O=C1Nc2ccccc2-c2nc(Nc3ccc(N4CCC(O)CC4)cc3)ncc2N1 [XMD16-95]
ActivX EphB2 (EphB2 [1]): 97.2

O=C1Nc2cnc(Nc3ccc(N4CCC(O)CC4)cc3)nc2-c2ccccc2N1Cc1ccccc1Cl [XMD16-101-1]
ActivX EphB2 (EphB2 [1]): 6.1

O=C1Nc2cnc(Nc3ccc(N4CCC(O)CC4)cc3)nc2-c2ccccc2N1Cc1c(Cl)cccc1Cl [XMD16-101-2]
ActivX EphB2 (EphB2 [1]): 0.6

CN1C(=O)N(C)c2cnc(Nc3ccc(N4CCC(O)CC4)cc3)nc2-c2ccccc21 [XMD16-117]
Ambit EPHB1 (EPHB1): 91
Ambit EPHA2 (EphA2 [6]): 100
Ambit EPHB2 (EphB2 [7]): 100
Ambit EPHA1 (EphA1): 69
Ambit EPHA7 (EphA7): 100
Ambit EPHB6 (EPHB6): 20
Ambit EPHB3 (EPHB3): 93
Ambit EPHA5 (EPHA5): 91
Ambit EPHB4 (EphB4): 91
Ambit EPHA8 (EPHA8): 92 and 100
Ambit EPHA3 (EPHA3): 47
ActivX EphB2 (EphB2 [1]): 19.8
Ambit EPHA4 (EPHA4): 84

COc1cc(C(=O)N2CCC(N3CCN(C)CC3)CC2)ccc1Nc1ncc2c(n1)-c1ccccc1N(C)C(=O)N2C [XMD16-118]
ActivX EphB2 (EphB2 [1]): −20.9

COc1cc(C(=O)N2CCC(N3CCN(C)CC3)CC2)ccc1Nc1ncc2c(n1)-c1ccccc1NC(=O)N2 [XMD16-120]
ActivX EphB2 (EphB2 [1]): 60.1

COc1cc(C(=O)N2CCC(N3CCN(C)CC3)CC2)ccc1Nc1ncc2c(n1)-c1ccccc1N(Cc1ccccc1C)C(=O)N2 [XMD16-121]
ActivX EphB2 (EphB2 [1]): 12.2

CN1C(=O)N(Cc2ccccc2Cl)c2ccccc2-c2nc(Nc3ccc(N4CCC(O)CC4)cc3)ncc21 [XMD16-122-1]
ActivX EphB2 (EphB2 [1]): −13

CN1C(=O)N(Cc2c(Cl)cccc2Cl)c2ccccc2-c2nc(Nc3ccc(N4CCC(O)CC4)cc3)ncc21 [XMD16-122-2]
ActivX EphB2 (EphB2 [1]): −5.5

COc1cc(C(=O)N2CCC(N3CCN(C)CC3)CC2)ccc1Nc1ncc2c(n1)-c1ccccc1N(Cc1ccccc1Cl)C(=O)N2C [XMD16-123-1]
ActivX EphB2 (EphB2 [1]): 2.5

Cc1ccccc1CN1C(=O)N(C)c2cnc(Nc3ccc(N4CCC(O)CC4)cc3)nc2-c2ccccc21 [XMD16-124]
Ambit EPHB1 (EPHB1): 84
Ambit EPHA2 (EphA2 [6]): 93
Ambit EPHB2 (EphB2 [7]): 100
Ambit EPHA1 (EphA1): 81
Ambit EPHA7 (EphA7): 100
Ambit EPHB6 (EPHB6): 78
Ambit EPHB3 (EPHB3): 93
Ambit EPHA5 (EPHA5): 90
Ambit EPHB4 (EphB4): 99
Ambit EPHA8 (EPHA8): 100
Ambit EPHA3 (EPHA3): 77
ActivX EphB2 (EphB2 [1]): 18.3
Ambit EPHA4 (EPHA4): 89

COc1cc(C(=O)N2CCC(N3CCN(C)CC3)CC2)ccc1Nc1ncc2c(n1)-c1ccccc1N(Cc1ccccc1C)C(=O)N2C [XMD16-125]
ActivX EphB2 (EphB2 [1]): 0.9

COc1cc(C(=O)N2CCC(N3CCN(C)CC3)CC2)ccc1Nc1ncc2c(n1)-c1ccccc1N(C1CCCC1)C(=O)N2 [XMD16-127]
EphA2 Activity (% Inhibition at 10 micromolar) (EphA2 [8]): −1.1% and −10.5%
ActivX EphB2 (EphB2 [1]): 2

COc1cc(C(=O)N2CCC(N3CCN(C)CC3)CC2)ccc1Nc1ncc2c(n1)-c1ccccc1N(C1CCOCC1)C(=O)N2 [XMD16-128]
EphA2 Activity (% Inhibition at 10 micromolar) (EphA2 [8]): −5.1% and −8.2%
ActivX EphB2 (EphB2 [1]): 4.5

XMD8-92
KINOMEscan selectivity score S10 (panel of 442 kinases [5]; previously reported, 5/402 kinases): 0.012
